Earlier results on one molecule are cited in patent US20050244465A1, “Drug delivery systems and methods for treatment of an eye” (Allergan, Inc., priority 2004, published 2005).

For this data set the following is noted: efficacy in vivo; 25 mg hydrocortisone equivalent to 1 mg dexamethasone.

As to `C[C@]12CCC(=O)C=C1CC[C@@H]1[C@@H]2[C@@H](O)C[C@@]2(C)[C@H]1CC[C@]2(O)C(=O)CO` [hydrocortisone], the “potency relative to dexamethasone” value is on record as “approximately twentyfivefold less potent than dexamethasone”.
